The values that follow come from ChEMBL document CHEMBL4619729, “In silico and in vitro studies on interaction of novel non-imidazole histamine H3R antagonists with CYP3A4” (Bioorg Med Chem Lett, 2020).

As a reminder, the pKi is the negative decadic logarithm of the Ki, by convention in mol/L. The term inhibition denotes the drop in the measured response relative to a control, in per cent.

pKi: −log10 of the molar value.

T2 sequence (P08684 whole entry): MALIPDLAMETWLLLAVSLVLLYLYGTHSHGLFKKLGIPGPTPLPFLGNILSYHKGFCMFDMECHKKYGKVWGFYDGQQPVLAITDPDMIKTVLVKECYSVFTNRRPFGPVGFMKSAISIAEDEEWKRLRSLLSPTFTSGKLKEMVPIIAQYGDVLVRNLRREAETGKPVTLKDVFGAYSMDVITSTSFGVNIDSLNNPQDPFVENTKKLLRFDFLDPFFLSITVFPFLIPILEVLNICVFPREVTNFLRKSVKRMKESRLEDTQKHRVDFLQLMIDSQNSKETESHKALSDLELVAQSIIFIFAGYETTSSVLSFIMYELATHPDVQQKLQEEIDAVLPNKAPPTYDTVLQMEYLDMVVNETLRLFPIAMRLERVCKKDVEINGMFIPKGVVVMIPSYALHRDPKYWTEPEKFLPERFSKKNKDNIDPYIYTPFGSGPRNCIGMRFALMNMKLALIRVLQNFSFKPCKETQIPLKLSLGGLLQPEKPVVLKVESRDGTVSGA

The first data set deals with T1, Histamine H3 receptor (Homo sapiens, UniProt Q9Y5N1). As to the kind of experiment: Displacement of [3H]-N-alpha-methylhistamine from human recombinant full length H3R expressed in HEK293 cell membranes by Microbeta scintillation counting method.
T1 sequence (Q9Y5N1 whole entry): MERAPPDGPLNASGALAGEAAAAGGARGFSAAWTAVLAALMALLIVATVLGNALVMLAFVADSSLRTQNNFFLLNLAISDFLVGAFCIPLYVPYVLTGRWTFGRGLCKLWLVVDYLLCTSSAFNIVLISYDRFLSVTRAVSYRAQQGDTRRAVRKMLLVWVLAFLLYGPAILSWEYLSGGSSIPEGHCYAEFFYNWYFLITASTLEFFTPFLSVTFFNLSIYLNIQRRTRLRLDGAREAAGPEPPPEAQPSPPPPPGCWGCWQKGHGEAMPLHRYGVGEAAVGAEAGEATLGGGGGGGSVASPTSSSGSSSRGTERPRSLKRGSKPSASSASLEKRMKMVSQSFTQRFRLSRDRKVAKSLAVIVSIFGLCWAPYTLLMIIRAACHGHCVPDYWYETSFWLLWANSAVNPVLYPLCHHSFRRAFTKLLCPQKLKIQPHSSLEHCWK
Conditions: not given
For orientation: In a radioligand displacement assay an active substance lowers the binding of a labelled ligand.
As to `O=C(c1ccccc1)c1cccc(OCCCCCCN2CCCCCC2)c1`, the negative-log Ki (pKi) was 7.39.

Another data set addresses T1, Histamine H3 receptor. In words: Binding affinity to H3R (unknown origin).
Conditions: not given
The compound `CC(C)(C)c1ccc(OCCCCCCN2CCCCCC2)cc1` gave a pKi of 6.08.

Another data set deals with Cytochrome P450 3A4 (Homo sapiens, UniProt P08684). As to the kind of experiment: Activation of CYP3A4 (unknown origin) assessed as activation of conversion of beetle D-luciferin to D-luciferin at 10 uM by luminescent P450-Glo assay relative to control. Format: ADME.
Chain of Cytochrome P450 3A4 (P08684 whole entry): as the sequence (P08684 whole entry) above
Conditions: not given
In the case of `CCC(C)(C)c1ccc(OCCCCCCN2CCCCCC2)cc1`, the Activity came out at 18%.
Still for that read-out and setting: the result for `O=C(c1ccccc1)c1cccc(OCCCCCCN2CCCCCC2)c1` reads 713%.

The next data set addresses T2, CYP3A4 (Homo sapiens, UniProt P08684). As to the kind of experiment: Activation of human recombinant CYP3A4 assessed as activation of conversion of beetle D-luciferin to D-luciferin at 10 uM preincubated for 10 mins followed by substrate addition and measured after 50 mins in presence of NADPH by CYP450-Glo assay relative to control. Format: ADME. The following applies: recombinant CYP3A4, probe beetle D-luciferin, read-out: Activity.
`c1ccc2cc(OCCCCCCN3CCCCCC3)ccc2c1`: the activity at 50 min, 10 µM worked out at 14%.

The target of the next data set is T2, CYP3A4. In words: Inhibition of CYP3A4 (unknown origin) assessed as inhibition of conversion of beetle D-luciferin to D-luciferin at 10 uM by luminescent P450-Glo assay relative to control. Format: ADME. The conditions noted are these: probe beetle D-luciferin.
As for `CC(C)(C)c1ccc(OCCCCCCN2CCCCCC2)cc1`, the inhibition at 10 µM was 19%.
On the same count and under the same terms, the result for `CC(C)(C)c1ccc(OCCCN2CCCCC2)cc1` reads 61%; that for `Clc1ccc(OCCCCCCN2CCCCCC2)cc1`, 23%; that for `c1ccc2c(OCCCCCCN3CCCCCC3)cccc2c1`, 46%.
On the same count and under the same terms, in the case of `CCC(C)(C)c1ccc(OCCCCCCCCN2CCCCCC2)cc1` it was 41%; in that of `CCC(C)(C)c1ccc(OCCCCN2CCCCCC2)cc1`, 5%; in that of `CCC(C)(C)c1ccc(OCCCN2CCCCC2)cc1`, 8%.
Regarding `CC1CCCN(CCCCCCCOc2ccc(Cl)cc2)C1` (stereo not drawn), the inhibition at 10 µM came to 4%.
As for `c1ccc(-c2ccc(OCCCCCCN3CCCCCC3)cc2)cc1`, the inhibition at 10 µM worked out at 13%.
The same measure, in the same setting: in the case of `c1ccc(-c2cccc(OCCCCCCN3CCCCCC3)c2)cc1` it was 19%; in that of `CCC(C)(C)c1ccc(OCCCCCCCN2CCCCCC2)cc1`, 38%.
The same measure, in the same setting: in the case of `CCC(C)(C)c1ccc(OCCCN2CCCCCC2)cc1` it was 13%; in that of `Fc1ccc(OCCCCCCN2CCCCCC2)cc1`, 17%.
